According to US20210221848A1, “POLYMYXIN DERIVATIVES AND THEIR USE IN COMBINATION THERAPY TOGETHER WITH DIFFERENT ANTIBIOTICS” (priority 2014, published 2021):

What was measured:
K. pneumoniae [1] = conditions: absence of a second agent, Table 6B
E. coli [2] = conditions: absence of a second agent, Table 6B
E. coli [3] = assay: MIC in the presence of a fixed concentration (2 μg/mL) of Rifampicin; type: cell-based, Escherichia coli; conditions: Rifampicin 2 μg/mL
P. aeruginosa ATCC 27853 = assay: In vivo efficacy, thigh infection in mice, IV dosing, 9 h model; parameters: species or system Pseudomonas aeruginosa; conditions: mouse thigh, dose 3.4 mg/kg drug base IV at 1, 3.5 and 6 h post-infection
Experimental: Compounds were administered in solution by intravenous (IV) bolus injection into the lateral tail vein. […] At 1 hour post infection, 4 animals were humanely euthanized using pentabarbitone overdose to provide a pre-treatment control group. At 9 hours post infection, the clinical condition of all animals was assessed prior to them being humanely euthanized by pentabarbitone overdose. Animal weight was determined before both thighs were removed and weighed individually. Individual thigh tissue samples were homogenized in ice cold sterile phosphate buffered saline. Thigh homogenates were then quantitatively cultured onto cystine lactose electrolyte deficient (CLED) agar and incubated at 37° C. for 24 hours before colonies were counted.

P. aeruginosa = conditions: absence of a second agent, Table 6B
A. baumannii [4] = conditions: absence of a second agent, Table 6B
A. baumannii [5] = assay: MIC in the presence of […] of rifampicin; type: cell-based, Acinetobacter baumannii
K. pneumoniae [6] = assay: MIC in the presence of a fixed concentration (2 μg/mL) of Rifampicin; type: cell-based, Klebsiella pneumoniae; conditions: Rifampicin 2 μg/mL
HK-2 cell line = assay: In vitro renal cell toxicity assay (resazurin reduction)
Experimental: MICs were determined as described herein. HK-2 cell IC50 values were determined as described herein. Values are reported relative to Polymyxin B.

[7] = system: Escherichia coli ATCC 25922; conditions: mouse thigh, 1.47 mg/kg/dose free base IV at 1, 3.5 and 6 h post-infection, 9 h model
[8] = A. baumannii ATCC BAA-747, Table 5C
[9] = A. baumannii ATCC BAA-747, Table 5D
[10] = A. baumannii NCTC 13424, Table 5C
[11] = A. baumannii NCTC 13424, Table 5D

Row | Substance | MIC, K. pneumoniae ATCC 4352 (K. pneumoniae [1]) [micrograms/mL] | MIC, K. pneumoniae ATCC BAA-2146 (K. pneumoniae [1]) [micrograms/mL] | MIC, E. coli ATCC 25922 (E. coli [2]) [micrograms/mL] | MIC, E. coli NCTC 13441 (E. coli [2]) [micrograms/mL] | MIC in combination with Rifampicin, E. coli ATCC 25922 (E. coli [3]; Table 5C) [micrograms/mL] | MIC in combination with Rifampicin, E. coli ATCC 25922 (E. coli [3]; Table 5D) [micrograms/mL] | MIC in combination with Rifampicin, E. coli NCTC 13441 (E. coli [3]; Table 5C) [micrograms/mL] | MIC in combination with Rifampicin, E. coli NCTC 13441 (E. coli [3]; Table 5D) [micrograms/mL] | Log reduction from vehicle (CFU/g) (P. aeruginosa ATCC 27853) [log10 CFU/g] | MIC, P. aeruginosa ATCC 27853 (P. aeruginosa) [micrograms/mL] | MIC, P. aeruginosa CCUG 59347 (P. aeruginosa) [micrograms/mL] | MIC, A. baumannii ATCC BAA-747 (A. baumannii [4]) [micrograms/mL] | MIC, A. baumannii NCTC 13424 (A. baumannii [4]) [micrograms/mL] | MIC in combination with Rifampicin, A. baumannii ATCC BAA-747 (A. baumannii [5]; [8]) [micrograms/mL] | MIC in combination with Rifampicin, A. baumannii ATCC BAA-747 (A. baumannii [5]; [9]) [micrograms/mL] | MIC in combination with Rifampicin, A. baumannii NCTC 13424 (A. baumannii [5]; [10]) [micrograms/mL] | MIC in combination with Rifampicin, A. baumannii NCTC 13424 (A. baumannii [5]; [11]) [micrograms/mL] | MIC in combination with Rifampicin, K. pneumoniae ATCC 4352 (K. pneumoniae [6]; Table 5C) [micrograms/mL] | MIC in combination with Rifampicin, K. pneumoniae ATCC 4352 (K. pneumoniae [6]; Table 5D) [micrograms/mL] | MIC in combination with Rifampicin, K. pneumoniae ATCC BAA-2146 (K. pneumoniae [6]; Table 5C) [micrograms/mL] | further results
1 | (cis-5-cyclohexyl- piperidine)-3-carbonyl polymyxin B nonapeptide [Example D11] | 0.25 | 0.25 | 0.25 | 0.25 | ≤0.015 | 0.125 | 0.06 | 0.06 | 3.86 | 0.5 | 0.5 | 1 | 0.5 | 0.06 | 0.125 | 0.5 | 0.25 | 0.06 | 0.125 | 1 | MIC in combination with Rifampicin, K. pneumoniae ATCC BAA-2146 (K. pneumoniae [6]; Table 5D): 0.5 micrograms/mL
2 | 1,2,3,4- tetrahydroisoquinoline- 4-carbonyl polymyxin B nonapeptide [Example D15] | – | – | 0.25 | 0.5 | ≤0.015 | ≤0.015 | 0.03 | 0.03 | 3.89 | 0.25 | 0.5 | 2 | 2 | ≤0.015 | ≤0.015 | ≤0.015 | ≤0.015 | 0.03 | ≤0.015 | 0.125 | HK-2 IC50 rel to PMB (HK-2 cell line): 17; MIC in combination with Rifampicin, K. pneumoniae ATCC BAA-2146 (K. pneumoniae [6]; Table 5D): 0.125 micrograms/mL
3 | (S)-1-benzyl piperazine-2-carbonyl polymyxin B nonapeptide [Example D52] | 0.125 | 0.25 | 0.125 | 0.125 | – | – | – | – | – | 0.5 | 0.5 | 0.5 | 0.25 | – | – | – | – | – | – | – | Mean log10 CFU reduction vs. control [7]: 4.04 log10 CFU
